Experimental data reported in paper PMC5365648, “Pharmacokinetics of the Novel Echinocandin CD101 in Multiple Animal Species” (Antimicrobial Agents and Chemotherapy, 2017).
Starred links: 1 amine or outer side, 2 acyl side, 3 side chain; linkers in the order of their positions; H or OH if unused. Positions of bridges follow the written chain, without caps; N, C: chain ends. Non-standard residues stand in square brackets, D forms with d. Residues, ends and D or L forms follow the SMILES beside them. *: point of attachment. pTerphenylCO(4''-OnC5H11) = CCCCCOc1ccc(-c2ccc(-c3ccc(C(=O)*)cc3)cc2)cc1; Orn(4R-OH,5R-OH) = O=C([C@H](C[C@@H](O)[C@@H](O)N[*:3])N[*:1])[*:2]; hTyr(3S-OH,4S-OH) = N[C@H](C(=O)O)[C@H](O)[C@@H](O)c1ccc(O)cc1; Pro(3S-OH,4S-Me) = C[C@H]1CN[C@H](C(=O)O)[C@H]1O; Hyp = O=C(O)[C@@H]1C[C@@H](O)CN1

Assays:
[1] = radiolabeled drug, bile duct-cannulated rats, ref [14], cited from earlier work
Experimental: In that study, which utilized radiolabeled anidulafungin in bile duct-cannulated rats, 94.8% of the radioactive dose was accounted for through 168 h (or 7 days). […] In a similar study of CD101 conducted with nonradiolabeled material, no biotransformati ...

[2] = ref [13]; cited from earlier work
Description: In the case of brain concentrations, there was little difference across all the collection intervals. Given the relatively low concentrations and small differences across times, measured concentrations may reflect contamination from residual whole blood during the collec ...

[3] = for CD101 the effective half-life (covers the majority of the AUC), ref [10]; cited from earlier work
Experimental: The half-life of CD101 in human is about 3-fold longer (about 90 h) than that of anidulafungin (about 30 h) ([10]). It should be noted that 90 h is the effective half-life of CD101 (i.e., the half-life that covers the majority of the AUC), with a longer, later-phase half-life evident at lower concentration ...

[4] = Cynomolgus monkey pharmacokinetics, i.v. bolus; parameters: species or system cynomolgus monkeys; details: in vivo, iv, cynomolgus monkeys, single 2.8 mg/kg slow i.v. bolus, plasma, LC-MS/MS, n = 3
Experimental: A single dose of 2.13 mg/kg CD101 or 2.8 mg/kg anidulafungin was administered by slow i.v. bolus (∼10 min) to cynomolgus monkeys (n = 3/group), and blood samples (via peripheral vein) were drawn for plasma processing at 0.167, 0.5, 1, 3, 8, 12, 24, 48, and 72 h postdose.
(§1) For each of the pharmacokinetic studies, whole-blood samples (K3EDTA as anticoagulant) were collected and centrifuged within 30 min of collection. The resulting plasma was harvested and stored at −20°C until analysis. Tissue samples were homogenized by a bead-based homogenizer following the addition of deionized water to excised tissue in a 2:1 (vol/wt) ratio and stored at −20°C until analysis. Prior to analysis, plasma or homogenized tissue samples were quenched with acetonitrile (3:1, acetonitrile-plasma or tissue ratio) containing an appropriate internal standard (isotopically labeled d9-CD101 [mouse and rat] or a structural analog [dog, monkey, and chimpanzee]). Plasma and tissue homogenate concentrations (quantified against calibration standards processed the same way) were determined by reverse-phase, gradient liquid chromatography with tandem mass spectrometric detection (LC-MS/MS) using an AB-SCIEX API 3200Q/4000 mass spectrometry system. Calibration standard ranges were the following: 0.400 (lower limit of quantitation, [LLOQ]) to 200 μg/ml (CD101, mouse), 0.040 (LLOQ) to 10 μg/ml (anidulafungin, mouse), 0.002 (LLOQ) to 10 μg/ml (CD101, rat), 0.005 (LLOQ) to 10 μg/ml (anidulafungin, rat), 0.050 (LLOQ) to 10 μg/ml (CD101, dog), 0.020 (LLOQ) to 10 μg/ml (anidulafungin, dog), 0.010 (LLOQ) to 10 μg/ml (CD101, monkey), 0.001 (LLOQ) to 10 μg/ml (anidulafungin, monkey), 0.015 (LLOQ) to 10 μg/ml (CD101, chimpanzee), and 0.015 (LLOQ) to 10 μg/ml (anidulafungin, chimpanzee). When necessary, dilutions with blank matrix were made for samples that quantified above the upper limit of quantitation. The methods used in the analysis were qualified as fit for purpose: calibration standards were matrix matched with the exception that human plasma calibration standards were used to analyze chimpanzee plasma samples due to the rarity of blank chimpanzee plasma, and, for each analytical batch, triplicate calibration standards were included at the beginning, approximately in the middle, and at the end of the batch. Following analysis, quantitation was carried out by a calibration curve comprising the analyte/internal standard area ratio versus concentration. Analytical batch acceptance followed the general guidance that triplicate standards/quality controls be within ±20% for accuracy (percentage of nominal concentration) and ≤20% for precision (percent coefficient of variation).
(§2) Pharmacokinetic parameters were calculated by noncompartmental analysis using Phoenix WinNonlin (version 6.3; Pharsight, Mountain View, CA) from either individual or mean (mouse) concentration-time profiles. An unpaired t test was used to compare mean exposures from male and female rats.

[5] = Chimpanzee pharmacokinetics, i.v. infusion; format: in vivo, chimpanzees; details: in vivo, iv, female chimpanzees, single 1 mg/kg i.v. infusion (1 h), plasma, LC-MS/MS, noncompartmental, n = 2
Experimental: A single 1-mg/kg dose of CD101 or anidulafungin was administered by i.v. infusion (1 h) to female chimpanzees (n = 2/group), and blood samples (via peripheral vein) were drawn for plasma processing at the midpoint of infusion, at the end of infusion, at 2, 4, 8, 12, 24, 48, and 72 h postdose, and on days 5, 7, and 10 postdose.
as §1, §2

[6] = Mouse pharmacokinetics, i.v. bolus; details: in vivo, iv, male ICR (CD-1) mice, single 1 mg/kg slow i.v. bolus, plasma, LC-MS/MS, noncompartmental from mean profile, n = 3/time point
Experimental: A single 1-mg/kg dose of CD101 or anidulafungin was administered by slow i.v. bolus (∼2 min) to male ICR (CD-1) mice (n = 3/group/time point). Blood samples (via cardiac puncture) were collected for plasma processing predose and at 0.083 (5 min), 0.5, 1, 4, 8, 24, 48, and 72 h postdose. PK profiles were generated based on mean results from the three animals sampled at each time point. In another study, a single 1-, 4-, or 16-mg/kg dose of CD101 was administered by i.p. injection to female ICR (CD-1) mice (n = 3/time point/dose), and blood samples (via cardiac puncture) were drawn for plasma processing at 1, 3, 6, 12, 24, 48, 72, and 96 h postdose.
as §1, §2

| Compound | radioactive dose accounted for ([1]; through 168 h (7 days)) [%] | drug-derived radioactivity recovered in bile, % of dose ([1]; through 168 h) [%] | drug-derived radioactivity recovered in carcass, % of dose ([1]; through 168 h) [%] | drug-derived radioactivity recovered in feces, % of dose ([1]; through 168 h) [%] | radioactivity recovered in urine ([1]; through 168 h) [%] | Tissue/plasma AUC ratio, kidney [2] | Tissue/plasma AUC ratio, liver [2] | Tissue/plasma AUC ratio, lung [2] | half-life in human [3] | half-life [4] [h] | half-life [5] [h] | clearance ([5]; read-out: CL (clearance)) [mL/min/kg] | half-life [6] [h] | clearance ([6]; read-out: CL (clearance)) [mL/min/kg] |
| --- | --- | --- | --- | --- | --- | --- | --- | --- | --- | --- | --- | --- | --- | --- |
| CCCCCOc1ccc(-c2ccc(-c3ccc(C(=O)N[C@H]4C[C@@H](O)[C@@H](O)NC(=O)[C@@H]5[C@@H](O)[C@@H](C)CN5C(=O)[C@H]([C@@H](C)O)NC(=O)[C@H]([C@H](O)[C@@H](O)c5ccc(O)cc5)NC(=O)[C@@H]5C[C@@H](O)CN5C(=O)[C@H]([C@@H](C)O)NC4=O)cc3)cc2)cc1 [anidulafungin] ({pTerphenylCO(4''-OnC5H11)}-[Orn(4R-OH,5R-OH)]T[Hyp][hTyr(3S-OH,4S-OH)]T[Pro(3S-OH,4S-Me)]; lactam 1-C) | 94.8 | 33.9 | 40.4 | 17.1 | 2.94 | 10.7 | 12.4 | 10.4 | about 30 h | 8 | 30 | 0.42 | 19 | 0.21 |
| micafungin |  |  |  |  |  | 3.2 | 7.8 | 3.6 |  |  |  |  |  |  |
| caspofungin |  |  |  |  |  | 5.5 | 10.2 | 1.2 |  |  |  |  |  |  |
